Laboratory results reported in ChEMBL document CHEMBL1141514, “QSAR studies on CCR2 antagonists with chiral sensitive hologram descriptors” (Bioorg Med Chem Lett, 2008).

Molecular target: C-C chemokine receptor type 2 (Homo sapiens, UniProt P41597)
Experiment: Antagonist activity at human CCR2b receptor
Type: functional

C-C chemokine receptor type 2, sequence (P41597 whole entry): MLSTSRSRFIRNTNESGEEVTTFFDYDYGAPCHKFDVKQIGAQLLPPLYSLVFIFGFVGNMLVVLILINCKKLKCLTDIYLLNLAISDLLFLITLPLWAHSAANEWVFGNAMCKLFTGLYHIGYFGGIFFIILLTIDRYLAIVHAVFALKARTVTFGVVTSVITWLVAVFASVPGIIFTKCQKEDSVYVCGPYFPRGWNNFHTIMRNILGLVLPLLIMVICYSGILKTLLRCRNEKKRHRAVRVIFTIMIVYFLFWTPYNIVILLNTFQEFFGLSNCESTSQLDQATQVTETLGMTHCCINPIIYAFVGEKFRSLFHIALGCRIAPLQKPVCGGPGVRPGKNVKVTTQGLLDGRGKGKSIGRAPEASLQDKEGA

Row | Structure (SMILES) | IC50 (read-out: Log IC50 (converted)) [nM] | IC50 (read-out: IC50) [nM]
1 | O=C(NCc1cc(C(F)(F)F)cc(C(F)(F)F)c1)[C@@H](NCCN1CCC(c2ccccc2)CC1)c1ccccc1 | 832 | –
2 | O=C(NCc1cc(C(F)(F)F)cc(C(F)(F)F)c1)C(CCN1CCC2(C=Cc3ccccc32)CC1)C1CC1 (configuration not stated) | – | 98
3 | C[C@H]1CN([C@@H]2CC[C@](CC3CCC3)(C(=O)NCc3cc(C(F)(F)F)cc(C(F)(F)F)c3)C2)CC[C@]12C=Cc1ccccc12 | – | 19
4 | C[C@H]1CN([C@@H]2CC[C@H](C(=O)NCc3cc(C(F)(F)F)cc(C(F)(F)F)c3)C2)CC[C@]12C=Cc1ccccc12 | – | 20
5 | CSC[C@]1(C(=O)NCc2cc(C(F)(F)F)cc(C(F)(F)F)c2)CC[C@@H](N2CC[C@]3(C=Cc4ccccc43)[C@@H](C)C2)C1 | – | 13
6 | CC(CCN1CCC2(C=Cc3ccccc32)CC1)C(=O)NCc1cc(C(F)(F)F)cc(C(F)(F)F)c1 (configuration not stated) | – | 231
7 | C=CCC(CCN1CCC2(C=Cc3ccccc32)CC1)C(=O)NCc1cc(C(F)(F)F)cc(C(F)(F)F)c1 (configuration not stated) | – | 193
8 | C[C@H]1CN(CCC(C(=O)NCc2cc(C(F)(F)F)cc(C(F)(F)F)c2)C2CC2)CC[C@@]12C=Cc1ccccc12 (some centres not stated) | – | 14
9 | C[C@H]1CN(CCC(C(=O)NCc2cc(C(F)(F)F)cc(C(F)(F)F)c2)C2CCC2)CC[C@@]12C=Cc1ccccc12 (some centres not stated) | – | 28
10 | O=C(NCc1cc(C(F)(F)F)cc(C(F)(F)F)c1)C(CCN1CCC(c2ccc(F)cc2)CC1)C1CC1 (configuration not stated) | – | 280
11 | O=C(NCc1cc(C(F)(F)F)cc(C(F)(F)F)c1)C(CCN1CCC(c2ccccc2)CC1)C1CC1 (configuration not stated) | – | 285
12 | CCCC(CCN1CCC(c2ccccc2)CC1)C(=O)NCc1cc(C(F)(F)F)cc(C(F)(F)F)c1 (configuration not stated) | – | 126
13 | CCC[C@]1(C(=O)NCc2cc(C(F)(F)F)cc(C(F)(F)F)c2)CC[C@@H](N2CC[C@]3(C=Cc4ccccc43)[C@@H](C)C2)C1 | – | 16
14 | CC(C)C[C@]1(C(=O)NCc2cc(C(F)(F)F)cc(C(F)(F)F)c2)CC[C@@H](N2CC[C@]3(C=Cc4ccccc43)[C@@H](C)C2)C1 | – | 8
15 | C=CCC(CCN1CCC(c2ccccc2)CC1)C(=O)NCc1cc(C(F)(F)F)cc(C(F)(F)F)c1 (configuration not stated) | – | 642
16 | CC(C)C(CCN1CCC2(C=Cc3ccccc32)CC1)C(=O)NCc1cc(C(F)(F)F)cc(C(F)(F)F)c1 (configuration not stated) | – | 204
17 | C[C@H]1CN(CCC(CC2CC2)C(=O)NCc2cc(C(F)(F)F)cc(C(F)(F)F)c2)CC[C@@]12C=Cc1ccccc12 (some centres not stated) | – | 25
18 | Nc1nc([C@@H](CCN2CCC(c3ccccc3)CC2)C(=O)NCc2cc(C(F)(F)F)cc(C(F)(F)F)c2)cs1 | – | 229

More lines, now with the values ahead:

Row | IC50 (read-out: Log IC50 (converted)) [nM] | IC50 (read-out: IC50) [nM] | Structure (SMILES)
19 | – | 9 | C[C@H]1CN([C@@H]2CC[C@](C)(C(=O)NCc3cc(C(F)(F)F)cc(C(F)(F)F)c3)C2)CC[C@]12C=Cc1ccccc12
20 | – | 7.6 | CC(C)[C@]1(C(=O)NCc2cc(C(F)(F)F)cc(C(F)(F)F)c2)CC[C@@H](N2CC[C@]3(C=Cc4ccccc43)[C@@H](C)C2)C1
21 | – | 4 | C[C@H]1CN([C@@H]2CC[C@](C)(C(=O)NCc3cc(F)cc(C(F)(F)F)c3)C2)CC[C@]12C=Cc1ccccc12
22 | – | 3.1 | CC(C)[C@]1(C(=O)NCc2cc(F)cc(C(F)(F)F)c2)CC[C@@H](N2CC[C@]3(C=Cc4ccccc43)[C@@H](C)C2)C1
23 | – | 3.9 | CC(C)C[C@]1(C(=O)NCc2cc(F)cc(C(F)(F)F)c2)CC[C@@H](N2CC[C@]3(C=Cc4ccccc43)[C@@H](C)C2)C1
24 | – | 3.5 | CSC[C@]1(C(=O)NCc2cc(F)cc(C(F)(F)F)c2)CC[C@@H](N2CC[C@]3(C=Cc4ccccc43)[C@@H](C)C2)C1
25 | – | 67 | CS[C@]1(C(=O)NCc2cc(F)cc(C(F)(F)F)c2)CC[C@@H](N2CC[C@]3(C=Cc4ccccc43)[C@@H](C)C2)C1
26 | – | 28 | CS[C@]1(C(=O)NCc2cc(C(F)(F)F)cc(C(F)(F)F)c2)CC[C@@H](N2CC[C@]3(C=Cc4ccccc43)[C@@H](C)C2)C1
27 | – | 1.9 | C[C@H]1CN([C@@H]2CC[C@@](C(=O)NCc3cc(F)cc(C(F)(F)F)c3)(C3CC3)C2)CC[C@]12C=Cc1ccccc12
